According to article PMC4729491, “The Cellular Thioredoxin-1/Thioredoxin Reductase-1 Driven Oxidoreduction Represents a Chemotherapeutic Target for HIV-1 Entry Inhibition” (PLoS ONE, 2016):
Entries after “also recorded” stand apart in the source; their conditions may differ.

Legend:
HIV-1(IIIB) [1] = test: Antiviral activity in PHA-stimulated PBMCs (p24 ELISA), HIV-1(IIIB); format: cell-based; details: PHA-stimulated PBMCs; mean ± SD; read-out: EC50 HIV-1 (IIIB)
Method: (§1) To test the antiviral activity in fresh, PHA-stimulated PBMCs, an experiment was performed as previously described. Briefly, the cells were preincubated with HIV-1(IIIB), HIV-1(BaL) or HIV-1(HE) for 1 h at 37°C, using a viral load of 1000 x CCID50 per ml. Then, cell suspensions containing virus and 2 x 10^5 PBMCs were seeded in a 96-well microtiter plate and a serial dilution of compound was added, in a total volume of 200 μl. After 4 days, the cells were passaged and fresh culture medium, containing IL-2 and compound, was added. Three days later, cellular supernatants were harvested and viral replication in the presence of the compounds was quantified using a p24 enzyme-linked immunosorbent assay (ELISA) (Perkin Elmer, Brussels, Belgium). The half maximal effective concentration (EC50) was defined as the compound concentration that is required to block viral replication by 50%.

HIV-1(HE) = test: Antiviral activity in PHA-stimulated PBMCs (p24 ELISA), HIV-1(HE); format: cell-based; details: PHA-stimulated PBMCs; mean ± SD; read-out: EC50 HIV-1 (HE)
Method: as §1

PHA-stimulated PBMCs = test: Toxicity in PHA-stimulated PBMCs (trypan blue cell counting); format: cell-based, human; details: proliferation of seven-day drug-exposed PHA-stimulated PBMCs; mean ± SD; read-out: IC50 PBMC
Method: A similar experiment was performed to study the toxicity of the compounds in fresh, PHA-stimulated, PBMCs. Mock-infected PBMCs (2 x 10^5 cells) were exposed to a serial dilution of compound, in a total volume of 200 μl. Cells were passaged after 4 days. Cell survival and proliferation was assessed at day 7 using trypan blue-based cell counting with the Countess Automated Cell Counter (Invitrogen, Ghent, Belgium). The IC50 was defined as the concentration of the compound that inhibited cell proliferation by 50%.

HIV-1(IIIB) [2] = format: cell-based; details: MT-4 cells, p24 ELISA at 31 h; TE-2 at 50 μM
Method: Two time-of-drug-addition (TOA) experiments were performed and adopted from previously reported methods. Briefly, MT-4 cells were infected with HIV-1(IIIB) at a multiplicity of infection of 0.5. Following a 1 hour adsorption period, cells were washed, distributed in a 96-well tray at 100,000 cells per 200 μl per well and incubated at 37°C.
For the first experiment, test compounds were added to the infected cell cultures at different time points (i.e. 0, 1, 2, 3, 4, 5, 6, 7, 8, 9, 24, and 25 h) after the start of infection.
In a second experiment, the resolution of the assay was increased by evaluating early time points in more detail. Therefore, the test compounds were added to the infected cell cultures at the following time points after the start of infection: 0, 15, 30, 45, 100 and 180 min; and 24 as well as 25 h.
Product added at time points 0, 15, 30 and 45 min was present at the start of the viral infection and washed away after 1 hour. After washing, fresh product was added to maintain viral suppression throughout the remaining of the experiment.
HIV-1 production was determined at 31 h post infection via a p24 ELISA (Perkin Elmer, Brussels, Belgium).

TrxR1 = molecular target: T1, TrxR1 (Homo sapiens, UniProt Q16881); test: SPR binding to immobilized TrxR1; details: 10, 50 and 250 μM
T1 construct: purchased IMCO Corporation (Stockholm, Sweden) or Sino Biological Inc (Zoersel, Belgium)
T1 sequence (Q16881 1-499 isoform Q16881-5): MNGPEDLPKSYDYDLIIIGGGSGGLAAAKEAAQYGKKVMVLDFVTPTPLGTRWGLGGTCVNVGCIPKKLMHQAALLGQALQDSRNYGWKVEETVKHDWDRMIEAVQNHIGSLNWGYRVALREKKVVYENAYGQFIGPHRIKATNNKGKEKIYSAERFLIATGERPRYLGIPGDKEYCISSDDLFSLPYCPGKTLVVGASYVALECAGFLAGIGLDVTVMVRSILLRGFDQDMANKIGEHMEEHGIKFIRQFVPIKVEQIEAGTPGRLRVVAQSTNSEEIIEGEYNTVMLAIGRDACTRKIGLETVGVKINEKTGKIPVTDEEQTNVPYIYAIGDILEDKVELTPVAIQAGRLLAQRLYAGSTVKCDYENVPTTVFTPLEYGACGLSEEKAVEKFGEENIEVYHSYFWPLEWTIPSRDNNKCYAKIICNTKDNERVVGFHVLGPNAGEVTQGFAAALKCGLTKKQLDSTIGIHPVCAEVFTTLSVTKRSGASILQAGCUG
Method: (§2) SPR analysis was performed to evaluate binding of TE-2 to immobilized recombinant TrxR1, PDI, gp120, gp41 and sCD4. Therefore, these ligands were immobilized on a CM5 sensor chip (GE Healthcare, Uppsala, Sweden) using standard amine coupling in the presence of 10 mM sodium acetate, pH 5. A high ligand-density chip was created, with ligand densities of 6759, 5004, 4119, 2900 and 5569 RU, respectively. A reference flow cell was used to control for non-specific binding and refractive index changes. All interactions were studied at 25°C on a Biacore T200 instrument (GE Healthcare, Uppsala, Sweden) in HBS-P (10 mM HEPES, 150 mM NaCl and 0.05% surfactant P20; pH 7.4) supplemented with 10 mM CaCl2 and 5% DMSO. TE-2 was tested at the concentrations 10, 50 and 250 μM. Samples were injected during 2 minutes at a flow rate of 30 μl/min, followed by a dissociation phase of 2 minutes. Each injection was followed by a regeneration step with 50 mM NaOH (injected during 10 seconds at a flow rate of 100 μl/min).

PDI = PDI (Homo sapiens, UniProt P07237); test: SPR binding to immobilized PDI; details: 10, 50 and 250 μM
Sequence of PDI (P07237 18-508, species assumed): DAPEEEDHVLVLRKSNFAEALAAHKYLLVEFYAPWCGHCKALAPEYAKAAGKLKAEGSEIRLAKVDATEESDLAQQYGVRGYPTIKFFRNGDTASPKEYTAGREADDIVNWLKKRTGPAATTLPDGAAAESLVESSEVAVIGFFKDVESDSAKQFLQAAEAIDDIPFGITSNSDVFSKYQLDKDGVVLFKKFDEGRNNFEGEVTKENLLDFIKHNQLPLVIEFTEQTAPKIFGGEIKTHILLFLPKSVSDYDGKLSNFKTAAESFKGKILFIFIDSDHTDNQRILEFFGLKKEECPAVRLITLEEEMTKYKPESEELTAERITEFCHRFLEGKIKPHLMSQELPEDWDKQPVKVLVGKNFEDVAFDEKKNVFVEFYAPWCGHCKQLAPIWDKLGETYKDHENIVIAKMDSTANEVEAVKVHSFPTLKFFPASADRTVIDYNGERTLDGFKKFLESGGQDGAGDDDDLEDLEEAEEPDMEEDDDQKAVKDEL
Method: as §2

HIV-1 = test: Infectivity (TZM-bl) of virus particles produced by ACH-2 cells in presence of compound; format: cell-based; details: ACH-2 cultures exposed to compound 3 days; supernatant 1:100 titrated on TZM-bl
Method: To measure the infectivity of particles produced in the presence of the compounds, washed persistently HIV-1-infected ACH-2 cells (1 x 10^6 cells/ml) were cultured with 100 nM PMA in the presence of the indicated concentration of compounds. After 3 days, the p24 content of the clarified supernatant (see virus expression) was measured. The cell supernatant was then used for an infectivity test (see infectivity assay) without the further addition of any compound to the cultures. The final dilution of the ACH-2 supernatant in the infectivity test was 1:100. A control experiment was performed, in which virus particles produced without the addition of compound, were used for the infectivity test. Additionally, the same amount of compound that could have been carried over with the virus containing supernatant in the original experiment was added to the infectivity test (final concentration: 1/100 of the indicated amount in the viral growth culture).

[3] = previously known structural properties ref 20-22; cited from earlier work

6-(butyltelluro)-6-deoxy-β-cyclodextrin [TE-2]
EC50 (HIV-1(IIIB) [1]): 15 ± 7 µM | EC50 (HIV-1(HE)): 6.6 ± 4.2 µM | IC50 (PHA-stimulated PBMCs): 54 ± 16 µM | time-of-drug-addition profile (HIV-1(IIIB) [2]): mostly lost when added at t = 1 h after infection; also recorded: profile resembling that of the fusion inhibitor enfuvirtide (T-20) | SPR binding to TrxR1 (TrxR1): able to specifically bind TrxR1 | SPR binding to PDI (PDI): dose-dependently interact with PDI | infectivity of virus particles produced in presence of compound (normalized for equal p24) (HIV-1): substantially less infectious virus particles | Hydrophobicity [3]: Hydrophilic
